{
  "source": "patent US20060160871A1",
  "about": "“Stable non-crystalline formulation comprising losartan” (Nektar Therapeutics, priority 2004, published 2006)",
  "key": {"[1]": {"assay": "Differential Scanning Calorimetry (DSC): amorphous form and glass transition temperature", "type": "physicochemical", "settings": "specific heat as a function of temperature", "method": "DSC was used to determine glass transition temperatures. This technique provides a measure of the glass transition characteristics of amorphous materials. In addition, the absence of a melting point is indicative of the lack of three dimensional order characteristic of crystalline materials. A Perkin-Elmer™ DSC 7 (Perkin-Elmer Ltd, UK) was used. 1-5 mg samples were examined in sealed, crimped aluminium pans, under an atmosphere of nitrogen. Samples were measured using a TA DSC-2920 instrument (TA Instruments, New Castle, Del.). About 5-10 mg sample was packed into an aluminum DSC pan and gently tapped to get the powder to form a uniform layer on the bottom of the pan (Catalog numbers 900 793.901 for pans and 900 794.901 for lids). The DSC pan was hermetically sealed using a sample encapsulation press (part # 900680.902). Helium is used as the DSC purge gas at 30 ml/min. A Refrigerated Control System (RCS) provides the heat sink for the DSC, with helium as the circuit gas run at ˜110 ml/min. In modulated DSC experiments, the sample was first cooled to about 0° C., held isothermally for 10 minutes, and then heated at 2° C./minute to ˜200° C. The heating rate was modulated by superimposing a sinusoidal heating profile at ±0.318° C./min."}, "[2]": {"assay": "Powder flowability after exposure to ambient conditions", "type": "physicochemical", "description": "The particles made by Example 2 were further determined to be advantageous over pure non-crystalline forms. […] Accordingly, the non-crystalline losartan and PVP-VA containing powder formulation has an improved flowability for downstream process such as tablet formation."}},
  "data": [
    {"smiles": "CCCCc1nc(Cl)c(CO)n1Cc1ccc(-c2ccccc2-c2nnn[nH]2)cc1.[K]", "note": "[pure non-crystalline losartan, 2-butyl-4-chloro-1-[p-(o-1H-tetrazol-5-ylphenyl)benzyl]imidazole-5-methanol monopotassium salt]", "values": [
      {"measurement": "Tg midpoint", "setting": "[1]", "result": "about 51 °C"},
      {"measurement": "Tg onset", "setting": "[1]", "result": "about 46 °C"},
      {"measurement": "powder flowability", "setting": "[2]", "result": "sticks and agglomerates"}
    ]}
  ]
}
